In one assay the test system is human bronchial rings. Briefly: Wire myograph bronchodilation of histamine pre-contracted human bronchial rings (Biopta). An excerpt: Details of bronchodilator studies shown in Figure 5H, 6 and Supplementary Figure 40 are provided below as part of the end assay report on Study CUR011 by Lee Christie (Biopta). Donors with any of the following conditions were excluded from the study: asthma, COPD, emphysema, lung cancer, cystic fibrosis, pulmonary fibrosis, pulmonary hypertension, pneumonia. Donors were also excluded if they had smoked in the past 12 months. Non-transplantable lung tissue was acquired from organ donors post mortem. Any macroscopically diseased/necrotic tissue was rejected. […] Human airway rings were set up under isometric conditions on a wire myograph in order to examine the influence of the test articles on bronchodilation. In order to assess tissue viability, the airways were challenged with carbachol (10 μM) and then isoprenaline (10 μM) to assess their constriction and relaxation responses, respectively. […] Viable airways were pre-constricted with histamine (10 μM), then exposed to one of the following cumulative concentration response curves (CCRCs): positive control, vehicle (water, volume matched to positive control), test article, vehicle (DMSO concentration matched to test articles). At the end of each CCRC, theophylline (2.2 mM) was added to induce maximal relaxation of the tissue. […] Airways were re-tensioned to 1.0 – 1.5 g if the tension had dropped below 1.0 g during the first 30 min of equilibration. (b) Airways were exposed to carbachol (bath concentration 10 μM) in order to measure their contractile responses and then isoprenaline (10 μM) in order to assess their relaxation. Airways were washed out and allowed to return to baseline. (c) Airways were pre-constricted with histamine (10 μM) before conducting a CCRC to the test article, the positive control (isoprenaline), test article vehicle or positive control vehicle.

The next assay has as its system mouse tracheal rings. Briefly: Bronchodilation of mouse tracheal rings at differing levels of carbachol pre-contraction. Particulars: EC95 level of carbachol, normalized to theophylline. As for the experimental part: Standard procedures as listed above were used to prepare, mount and Wake-Up tracheal rings and the concentrations of carbachol providing EC25, EC50, EC75, or EC95 levels of contraction for each ring was determined as described above.

Assay [1] concerns primary human ASM cells. Briefly: Eact-induced calcium flux in primary human ASM cells. The format is cell-based. Particulars: Eact 10 M (so in the source), read-out: IC50 block of Eact calcium flux. The procedure:
(§1) 1.1 Measuring antagonist effects on bronchial smooth muscle cell (BSMC) pro-contractile calcium flux.
(§2) Human BSMCs were obtained from Lonza, resuspended, cultured and serum starved for 24 hours as described for the histamine membrane potential assay. Compounds and dilutions were prepared in same manner, except they were serially diluted in Assay Buffer (2 mM CaCl2, 1 mM MgCl2, 4.5 mM KCl, 155 mM NaCl, 5 mM HEPES, 10 mM glucose, pH7.4) to 4X the final concentration. A Calcium Indicator Working Solution (10 ml) was prepared by adding 1ml BD PBX Signal Enhancer (Cat# 51 -9006254) and 10 µl of BD Calcium Indicator (BD Cat# 850000 resuspended in 100% DMSO) to 9 ml Assay Buffer. Following serum starvation of the BSMCs, culture media was aspirated off and 50µl of Calcium Indicator Working Solution was added t o each well of microtiter plate. Twenty-five microliters of the 4X serially diluted compounds were then added and cells were incubated with compounds for 30 minutes at room temperature. Twenty -five microliters of a 4X histamine or methacholine solution (where 1X reflects EC 80-EC100 concentration from earlier validation of aliquot of cells from same donor) was then added and fluorescence changes were measured by a FLIPR-Tetra or internal FlashFluor instrument. In some experiments the TMEM16A opener, Eact, was used in place of histamine or methacholine.
In general terms: A change in cytosolic calcium serves as a functional read-out for many receptors and channels.

In assay [2] the test system is primary human ASM cells. Briefly: Methacholine-induced calcium flux in primary human ASM cells. The assay is classed as cell-based. Particulars: methacholine 10 M (so in the source), read-out: IC50 block of methacholine calcium flux. As for the experimental part: as §1, §2
Assay [3] deals with Wnt/β-catenin transcription. Particulars: cited from earlier work.
Where [4] appears, read: Homo sapiens, 10 μM histamine, read-out: EC50 bronchodilating histamine precontracted human airways.
Setting [5] is: histamine pre-contracted, 10 μM.
Where [6] appears, read: ref Mook et al. (2015), read-out: Mook et al. Wnt/β-catenin TopFlash (IC50).

Where “and” joins values, the source holds several entries; their conditions need not be identical. Identical values can stand only once. Like-named read-outs stand apart in the source and are kept apart here.

As to `CCc1oc2ccccc2c1C(=O)c1cc(Br)c(O)c(Br)c1` [Benzbromarone], the EC50 in the assay with human bronchial rings (setting [4]) amounted to 5.65 µM. Moreover, the “time to steady-state relaxation of human bronchial rings” value (shortened to “time to steady-state relaxation”) in the assay on human bronchial rings (setting [5]) fell in the range of 80 to 140 min. For the same molecule, the “relaxation of airway rings” value in the assay with mouse tracheal rings is recorded as “roughly 100%”. Further, the figures for the IC50 with primary human ASM cells [1] and in the assay on primary human ASM cells [2] were 2 µM and 7 µM, respectively.
For the molecule `CC(C)(C)C1CCc2c(sc(NC(=O)c3ccco3)c2C(=O)O)C1` (stereo not shown) [CaCCinh-A01], the IC50 with primary human ASM cells [1] came out at 7 µM; with primary human ASM cells [2], 50 µM.
Take `O=C(Nc1ccc([N+](=O)[O-])cc1)c1cc(Cl)ccc1O` [Cpd 2]: in assay [3] (setting [6]), the IC50 was 0.99 µM.
As to `COc1cc([N+](=O)[O-])ccc1NC(=O)c1cc(Cl)c2ccccc2c1O` [Cpd 4], the EC50 with human bronchial rings (setting [4]) is 3.45 µM; with human bronchial rings (histamine pre-contracted, Donor 1 Ring 1, Donor 1 Ring 2, Donor 2 Ring 1, read-out: EC50 relaxation of human bronchial rings, individual rings), ~1.75 µM and ~6.3 µM and 3 µM. For the same molecule, the “time to steady-state relaxation” value in the assay with human bronchial rings (setting [5]) is listed as 50 − 125 min. The “relaxation of airway rings” value in the assay on mouse tracheal rings was “roughly 100%”.
As to `O=C(Nc1ccc(Cl)cc1)c1cc(Cl)ccc1O` [Cpd 5], the IC50 in assay [3] (setting [6]) is 1.3 µM.
On to `Oc1ccc(Cl)cc1Cc1cc(Cl)ccc1O` [Dichlorophen], for which the IC50 in the assay with primary human ASM cells [1] is 57 µM; with primary human ASM cells [2] it was 106 µM.
For the molecule `O=C(Nc1ccc([N+](=O)[O-])cc1Cl)c1cc(Cl)ccc1O` [Niclosamide], the EC50 with human bronchial rings (10 μM histamine, read-out: EC50 bronchodilating histamine precontracted human airways) worked out at 0.967 µM; in the assay with human bronchial rings (setting [4]), 0.97 µM. For the same molecule, the “time to steady-state relaxation” value was around 92 min in the assay on human bronchial rings (histamine pre-contracted, 1 μM) and around 50 min with human bronchial rings (setting [5]). In addition, the “relaxation of airway rings” value in the assay on mouse tracheal rings is “roughly 100%”. Moreover, the IC50 in assay [3] (TOPFlash reporter assay, ref Mook et al., 2015, read-out: IC50 inhibition of Wnt/β-catenin transcription) was 0.34 µM.
As for `CCc1c(C)nc(SCC(=O)Nc2nc(-c3ccc(OC)cc3)cs2)[nH]c1=O` [T16Ainh-A01], the IC50 in the assay with primary human ASM cells [1] was found to be 15 µM.

The term EC50 denotes the concentration at which the effect is half-maximal.

The record behind these values is paper PMC6382696, “Drug Repurposing: The Anthelmintics Niclosamide and Nitazoxanide Are Potent TMEM16A Antagonists That Fully Bronchodilate Airways” (Frontiers in Pharmacology, 2019).
